Assay results from ChEMBL document CHEMBL1201862, “PubChem BioAssay data set” (2004).
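1) Cells in 96-well plates. 2) Compound, 48 h, 5 concentrations. 3) Linear interpolation between surrounding doses. 4) Unreached endpoint = highest concentration. GI50: concentration for 50% inhibition of growth.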 The source made the active and inactive calls. No stated cut-off is given here; in the data, active = GI50 up to about 1.1 µM and inactive = higher.

Columns and labels:
Assay in all cases: inhibition of tumour cell growth, NCI panel, 48 h
MDA-MB-435 = tested on: MDA-MB-435
HCT-116 = tested on: HCT-116
UACC-257 = tested on: UACC-257
SNB-19 = tested on: SNB-19
MCF7 = tested on: MCF7
Malme-3M = tested on: Malme-3M
SN12C = tested on: SN12C
MDA-N = tested on: MDA-N
SF-295 = tested on: SF-295
NCI-H522 = tested on: NCI-H522
786-0 = tested on: 786-0
M14 = tested on: M14
SW-620 = tested on: SW-620
HOP-92 = tested on: HOP-92
OVCAR-8 = tested on: OVCAR-8
SF-268 = tested on: SF-268
SK-MEL-28 = tested on: SK-MEL-28
HCC 2998 = tested on: HCC 2998
HT-29 = tested on: HT-29

| Compound | GI50 (MDA-MB-435) | GI50 (HCT-116) | GI50 (UACC-257) | GI50 (SNB-19) | GI50 (MCF7) | GI50 (Malme-3M) | GI50 (SN12C) | GI50 (MDA-N) | GI50 (SF-295) | GI50 (NCI-H522) | GI50 (786-0) | GI50 (M14) | GI50 (SW-620) | GI50 (HOP-92) | GI50 (OVCAR-8) | GI50 (SF-268) | GI50 (SK-MEL-28) | GI50 (HCC 2998) | GI50 (HT-29) |
| --- | --- | --- | --- | --- | --- | --- | --- | --- | --- | --- | --- | --- | --- | --- | --- | --- | --- | --- | --- |
| CC(=O)Oc1ccc(/C=C/C(=O)O[C@@H](C)[C@H](C)OC(=O)/C=C/c2ccc(OC(C)=O)c(OC(C)=O)c2)cc1OC(C)=O | 12.2 µM (inactive) | 7.5 µM (inactive) | 18.7 µM (inactive) | 18.9 µM (inactive) | 20 µM (inactive) | 22.9 µM (inactive) | 19.6 µM (inactive) | 11.1 µM (inactive) | 11.2 µM (inactive) | 6.37 µM (inactive) | 12.1 µM (inactive) | 11.4 µM (inactive) | 2.42 µM (inactive) | 20.2 µM (inactive) | 11.5 µM (inactive) | 18.4 µM (inactive) | 15.3 µM (inactive) | 11.4 µM (inactive) | – |
| CC/C(=C\c1ccc(OC)cc1)c1ccc(OC)cc1 | 45.7 µM (inactive) | > 100 µM (inactive) | 38.5 µM (inactive) | > 100 µM (inactive) | > 100 µM (inactive) | 50.7 µM (inactive) | > 100 µM (inactive) | > 100 µM (inactive) | 53.3 µM (inactive) | > 100 µM (inactive) | 94.2 µM (inactive) | 72.6 µM (inactive) | > 100 µM (inactive) | 69.7 µM (inactive) | > 100 µM (inactive) | > 100 µM (inactive) | – | > 100 µM (inactive) | 37.5 µM (inactive) |
| COc1cc2c(c(OC)c1OC)-c1ccc(SC)c(=O)cc1[C@@H](OC(=O)c1ccncc1)CC2 | < 0.01 µM (active) | < 0.01 µM (active) | < 0.01 µM (active) | < 0.01 µM (active) | < 0.01 µM (active) | < 0.01 µM (active) | – | < 0.01 µM (active) | < 0.01 µM (active) | < 0.01 µM (active) | < 0.01 µM (active) | < 0.01 µM (active) | < 0.01 µM (active) | 30.1 µM (inactive) | < 0.01 µM (active) | < 0.01 µM (active) | – | < 0.01 µM (active) | < 0.01 µM (active) |
| CC1(C)C2CC3C(C)(C2)C31c1cc(Cl)ccc1N (stereo not given) | 12.6 µM (inactive) | 2.23 µM (inactive) | 13.4 µM (inactive) | 18.9 µM (inactive) | 13.4 µM (inactive) | 7.53 µM (inactive) | 14.4 µM (inactive) | 12.2 µM (inactive) | 15.2 µM (inactive) | 6.71 µM (inactive) | 15.3 µM (inactive) | 12.4 µM (inactive) | 15 µM (inactive) | 13.3 µM (inactive) | 15.1 µM (inactive) | 13.8 µM (inactive) | 17.3 µM (inactive) | 15 µM (inactive) | 14.5 µM (inactive) |
| Oc1cc(N2CCCC2)ccc1/C=N/N1C(=S)N(c2ccccc2)C(=N\c2ccccc2)/C1=N/c1ccccc1 | > 100 µM (inactive) | 44.6 µM (inactive) | > 100 µM (inactive) | 51.4 µM (inactive) | 70.1 µM (inactive) | > 100 µM (inactive) | > 100 µM (inactive) | > 100 µM (inactive) | 94.4 µM (inactive) | 23.4 µM (inactive) | > 100 µM (inactive) | 34.2 µM (inactive) | 87.9 µM (inactive) | 63.2 µM (inactive) | > 100 µM (inactive) | > 100 µM (inactive) | > 100 µM (inactive) | > 100 µM (inactive) | > 100 µM (inactive) |
| COC(=O)c1ccc2cc(O)ccc2c1 | 96.6 µM (inactive) | 68.7 µM (inactive) | > 100 µM (inactive) | 79.8 µM (inactive) | 55 µM (inactive) | > 100 µM (inactive) | > 100 µM (inactive) | 78.9 µM (inactive) | 53.5 µM (inactive) | 58.6 µM (inactive) | 89.9 µM (inactive) | 72.1 µM (inactive) | > 100 µM (inactive) | > 100 µM (inactive) | 53.2 µM (inactive) | 21.5 µM (inactive) | > 100 µM (inactive) | > 100 µM (inactive) | 47.6 µM (inactive) |
